Reference: patent publication US20140335050A1, “METHODS, COMPOSITIONS, AND KITS FOR THE TREATMENT OF CANCER” (The General Hospital Corporation, priority 2011, published 2014)

Columns and labels:
Assay type in all cases: cell-based, human
[1] = test system: MU89 MART::EGFP cell line; test: Melan-A/MART-1 promoter-driven EGFP reporter, kinetics by flow cytometry; conditions: MU89 MART::EGFP (FIG. 11)
Method: FIG. 11 is a set of four graphs showing the kinetics of Melan-A/MART-1 increase. […] The same number of cells per well were plated in each well of a 24 well plate and drug was added on day zero. Each day cells were collected and assayed for that time point. Control untreated cells are shown for comparison. The data are from one representative experiment.
A kinetic analysis was performed to determine the effect of Hsp90 inhibition on Melan-A/MART-1 promoter activity over time. […] Reporter activity increases steadily for the first 72 hours of Hsp90 inhibition, and then plateaus. The need for continued presence of Hsp90 inhibitors in order for them to be effective (i.e. whether the drug can be removed after short exposure, or whether it must it be continually present) was assessed. […] To achieve full signal enhancement, it is desirable to retain the drug for at least 48 hours, after which the effect remains constant or slightly decreases.
The generation and application of EGFP reporter cells has been previously described. Briefly, a 1200 base pair human genomic DNA segment encompassing the Melan-A/MART-1 promoter was used to generate a construct driving expression of the EGFP reporter gene. Stable transfectants with this construct were generated in the low-antigen cell line A375 and the high-antigen line MM96L+ and MU89. The EGFP expression response patterns of these cells to IFN-beta and MAP kinase inhibitors recapitulates the antigen up-regulation of endogenous Melan-A/MART-1 induced by these agents.
(§1) Intracellular staining and flow cytometric analyses of cytoplasmic Melan-A/MART-1, and gp100 expression were performed as described previously. Cells were fixed with 1% formaldehyde, permeabilized with 0.1% saponin, stained with monoclonal antibodies to melanocyte antigens. Antibodies were obtained with specificity for: Melan-A/MART-1 from Vector Labs (Burlingame, Calif.); gp100/HMB45 from DakoCytomation (Carpinteria, Calif.) and then visualized with goat anti-mouse FITC-conjugated secondary antibody from Invitrogen (Frederick, Md.). The level of EGFP was determined by flow cytometry of unfixed cells washed and resuspended in 1×PBS. Surface staining of MHC Class I was carried out using the antibody W6/32 on cells harvested with Cell Stripper from MediaTech Inc. (Manassas, Va.) and carried out on ice.

A375 melanoma cell line = test: Antibody staining and flow cytometry (intracellular Melan-A/MART-1, gp100, TRP-2; surface MHC Class I)
Method: (§2) Cells were fixed with 1% formaldehyde, permeabilized with 0.1% saponin, stained with monoclonal antibodies to melanocyte antigens. Antibodies were obtained with specificity for: MART-1 from Vector Labs (Burlingame, Calif.); gp100 HMB45 from DakoCytomation (Carpinteria, Calif.) and then visualized with goat anti-mouse FITC-conjugated secondary antibody from Invitrogen (Fredrick, Md.). The level of EGFP was determined by flow cytometry of unfixed cells that were washed and resuspended in 1×PBS.
(§3) Cells were plated at a density of 1×10^5 in 1 ml of medium in a 24-well plate and cultured for varying times as indicated in results. […] After incubation, cells were collected by trypsinization and then evaluated by flow cytometry.
as §1
(§4) Cell were seeded at 1×10^6 cells in a T25 flask with 10 ml of media for the 4 day IFN-beta pre-treatments. Cells were then harvested and plated in 24 well plate at 1×10^5 cells per well in 1 ml of media for 3 day treatments.
(§5) For surface staining of HLA Class I and II antigens, cells were harvested using CellStripper™ from Mediatech (Manassas, Va.). All staining steps were performed on ice. Following a first incubation with antibody to Class I (W6/32) or Class II (L243) for 30 minutes. Stained cells were washed twice with cold PBS and then stained with a goat anti-mouse FITC secondary antibody to allow for quantitative analysis by flow cytometry. For evaluation of cytoplasmic antigens, including Melan-A/MART-1 and gp100, cells were first fixed in paraformaldehyde and permeabilized with saponin as previously described. Staining for cytoplasmic antigens was carried out at room temperature (22° C.).

MUX melanoma cell line = test: as above; conditions: MUX
Method: as §2, §3, §1, §4, §5

[2] = test system: HeLa cervical carcinoma cells; test: Surface antibody staining and flow cytometry (MHC Class I/II); conditions: for Class I MHC, geometric mean of surface staining (W6/32): 4 day IFN-β pre-treatment (5000 Units/ml), with PU-H71 0.3 where labelled (label IFN-β: no inhibitor)
Method: as §1, §4, §5

[3] = 3 days, IFN-beta 5000 Units/ml, 17-AEP 0.5, PU-H71 0.15, CCT018159 2.5 μg/ml
[4] = 3 days, IFN-beta 5000 Units/ml, 17-AEP 1.0, PU-H71 0.3, CCT018159 10.0 μg/ml
[5] = HeLa cells, Table 20, single agent or simultaneous combination

CC(C)NCCCn1c(Sc2cc3c(cc2I)OCO3)nc2c(N)ncnc21 [PU-H71]
Time at which the fluorescent reporter signal is significantly enhanced (as early as) [1]: 2 days
Class I, geometric mean of surface staining (W6/32) (A375 melanoma cell line; [3]): 71
MART-1, geometric mean of intracellular staining (A375 melanoma cell line; [3]): 11
TRP-2, geometric mean of intracellular staining (A375 melanoma cell line; [3]): 26
gp100, geometric mean of intracellular staining (A375 melanoma cell line; [3]): 24
MHC Class I, geometric mean of surface staining (W6/32) (A375 melanoma cell line; 4 day IFN-β pre-treatment (5000 Units/ml), then 3 days with fresh IFN-β and the labelled HSP90 inhibitor (label IFN-β: no inhibitor), 17-AEP 0.5, PU-H71 0.15, CCT018159 2.5): 226
MHC Class I, geometric mean of surface staining (W6/32) (A375 melanoma cell line; 4 day IFN-β pre-treatment (5000 Units/ml), then 3 days without IFN-β with the labelled HSP90 inhibitor (label IFN-β: no inhibitor), 17-AEP 0.5, PU-H71 0.15, CCT018159 2.5): 174
MHC Class I, geometric mean of surface staining (W6/32) (A375 melanoma cell line; single agent for 3 days, no IFN-β pre-treatment, IFN-β 5000 Units/ml, 17-AEP 0.5, PU-H71 […], CCT018159 2.5): 131
MHC Class I, geometric mean of surface staining (W6/32) (A375 melanoma cell line; three days, IFN-β 5000 Units/ml, 17-AEP 0.5, PU-H71 […], CCT018159 2.5): 71
Class I, geometric mean of surface staining (W6/32) (MUX melanoma cell line; [4]): 212
MART-1, geometric mean of intracellular staining (MUX melanoma cell line; [4]): 19
TRP-2, geometric mean of intracellular staining (MUX melanoma cell line; [4]): 41
gp100, geometric mean of intracellular staining (MUX melanoma cell line; [4]): 32
MHC Class I, geometric mean of surface staining (W6/32) (MUX melanoma cell line; 4 day IFN-β pre-treatment (5000 Units/ml), then 3 days with fresh IFN-β and the labelled HSP90 inhibitor (label IFN-β: no inhibitor), 17-AEP 1, PU-H71 0.3, CCT018159 10 mg/ml): 579
MHC Class I, geometric mean of surface staining (W6/32) (MUX melanoma cell line; 4 day IFN-β pre-treatment (5000 Units/ml), then 3 days without IFN-β with the labelled HSP90 inhibitor (label IFN-β: no inhibitor), 17-AEP 1, PU-H71 0.3, CCT018159 10 mg/ml): 477
MHC Class I, geometric mean of surface staining (W6/32) (MUX melanoma cell line; single agent for 3 days, no IFN-β pre-treatment, IFN-β 5000 Units/ml, 17-AEP 1 μg/ml, PU-H71 0.3 μg/ml, CCT018159 10 μg/ml): 282
MHC Class I, geometric mean of surface staining (W6/32) (MUX melanoma cell line; three days, IFN-β 5000 Units/ml, 17-AEP 1 μg/ml, PU-H71 0.3 μg/ml, CCT018159 10 μg/ml): 212
L243 (MHC Class II surface staining) ([2]; HELA, single agent): 3.5
L243 (MHC Class II surface staining) [2, 5]: 3.8
W6/32 (MHC Class I surface staining) [2, 5]: 286.6
L243 (MHC Class II surface staining) ([2]; HeLa cells, Table 21, no pre-treatment, treatment as labelled): 4
L243 (MHC Class II surface staining) ([2]; HeLa cells, Table 21, pre-treatment IFN-G (3 days), then treatment as labelled): 185
L243 (MHC Class II surface staining) ([2]; HeLa cells, Table 21, substance given as pre-treatment (3 days) only, no subsequent treatment): 6
Class I MHC, geometric mean of surface staining (W6/32) ([2]; HeLa, then 3 days with fresh IFN-β): 137
Class I MHC, geometric mean of surface staining (W6/32) ([2]; HeLa, then 3 days without IFN-β): 168
Class II antigen level, sequential treatment ([2]; HeLa, IFN-gamma for 3 days, subsequently PU-H71): significantly greater than that achieved with IFN-gamma alone
Class I expression, combination ([2]; HeLa, PU-H71 together with IFN-beta): do not show the synergy
MHC Class II, geometric mean of surface staining (L2443) ([2]; HeLa, three days, IFN-β 5000 Units/ml, IFN-γ 100 ng/ml, PU-H71 0.3 mg/ml): 19
MHC Class I, geometric mean of surface staining (W6/32) ([2]; HeLa, three days, IFN-β 5000 Units/ml, IFN-γ 100 ng/ml, PU-H71 0.3): 402
MHC Class I, geometric mean of surface staining (W6/32) ([2]; HeLa, three days, IFN-β 5000 Units/ml, PU-H71 0.075-0.3): 182
